Reference: patent US20220057377A1, “ANALYTICAL METHOD FOR DETERMINATION OF IN VITRO DRUG RELEASE PROFILE FROM MICRONEEDLE PATCHES” (ZOSANO PHARMA CORPORATION, priority 2020, published 2022)
In brackets after ≈: the same amount, converted by molar mass. Several values for one entry are separate records, joined by “and”; a condition that tells them apart may be missing. Identical values can stand only once. Like-named read-outs stand apart in the source and are kept apart here.

Columns and labels:
[1] = Solubility of zolmitriptan at room temperature in PBS, water and IPA (in-house); type: physicochemical
Protocol: The solubility of zolmitriptan at room temperature in phosphate buffer saline (PBS), water, and isopropyl alcohol (IPA) were evaluated in-house. Zolmitriptan API was added into 200 mL of water, 10 mM phosphate buffer saline (PBS) at pH 7.4, and IPA until saturated. The solutions were then mixed at room temperature by stir bar overnight. Saturated solutions at 2 and 24 hours were filtered and analyzed for drug concentration by HPLC.

Sink condition = type: physicochemical
Protocol: The sink condition is defined as having a volume of medium at least three times that required to form a saturated solution of drug substance. […] The microneedle patch is coated with a specific amount (mg) of the bioactive agent and is intended to deliver a certain percentage of the drug. Based on the data from the solubility study described above, the sink condition can be met by various media.
The M207 patch is coated with 1.9 mg of zolmitriptan and is intended to deliver 100% of the drug. The mean drug content specification is 90.0%-110.0% of 1.9 mg. Based on the data from the solubility study, the sink condition was met for both the water and 10 mM PBS medium when applying volume of release medium of >6 mL. This is greater than three times the saturated solution in PBS (˜1.6 mL) for 1.9 mg of zolmitriptan released from the M207 patch.

[2] = Stability of zolmitriptan in 10 mM PBS release media; type: physicochemical
Protocol: In order for the drug to have fully released from the patches, a complete release time of 22 hours was noted. Therefore, stability of zolmitriptan in the release medium was evaluated for up to 24 hours.

[3] = Sample solution stability at 2-8° C.; type: physicochemical
Protocol: Sample solutions containing the released drug after the drug release tests were stored at 2-8° C. for a few days and injected to check the stability of the solution. Six sample solutions from each time points were aliquoted from release test tube and stored in refrigerator at 2-8 C for 15 days before being analyzed by HPLC. […] For the solution concentration is close to 1×-5× of the quantitation limit, 85%-115% recovery from fresh sample is considered reasonable.

[4] = cited from earlier work

CN(C)CCc1c[nH]c2ccc(C[C@H]3COC(=O)N3)cc12 [zolmitriptan]
solubility ([1]; 10 mM PBS, pH 7.4, aqueous buffer, thermodynamic from solid): ~1200 µg/mL (≈ 4.18 mM) | Zolmitriptan Concentration (saturated solution) ([1]; 10 mM PBS, pH 7.4, mixed 24 hours, room temperature): 1213.19 µg/mL | solubility thermodynamic at 2 h ([1]; 10 mM phosphate buffer saline, aqueous buffer, thermodynamic from solid, 10 mM PBS, pH 7.4, mixed 2 hours, room temperature, read-out: Zolmitriptan Concentration (saturated solution)): 1240 µg/mL (≈ 4.3 mM) | Zolmitriptan Concentration (saturated solution) ([1]; 100% IPA, mixed 2 hours, room temperature): 1691.82 µg/mL | Zolmitriptan Concentration (saturated solution) ([1]; HPLC grade Water, mixed 2 hours, room temperature): 944.05 µg/mL | Zolmitriptan Concentration (saturated solution) ([1]; HPLC grade Water, mixed 24 hours, room temperature): 1061.33 µg/mL | solubility ([1]; isopropyl alcohol (IPA), organic solvent or mixture, thermodynamic from solid): ~1700 µg/mL (≈ 5.92 mM) | solubility ([1]; water, thermodynamic from solid): ~1000 µg/mL (≈ 3.48 mM) | volume of saturated solution in PBS (Sink condition; for 1.9 mg of zolmitriptan released from the M207 patch): ~1.6 mL | volume of release medium at which sink condition was met (Sink condition; water and 10 mM PBS medium, 1.9 mg zolmitriptan): > 6 mL | After 24 hours at 32° C. Concentration ([2]; T0 Concentration 0.49 μg/mL): 0.50 µg/mL | After 24 hours at 32° C. Concentration ([2]; T0 Concentration 5.00 μg/mL): 5.02 µg/mL | After 24 hours at 32° C. Concentration ([2]; T0 Concentration 335.94 μg/mL): 335.94 µg/mL | stability in release media ([2]; up to 24 hours at 32° C.): remained stable | Drug Amount ([3]; T = 15 days at 2-8 C, 1 hour release time point, Average of 6): 0.22 mg | Drug Amount ([3]; T = 15 days at 2-8 C, 1 hour release time point, individual sample): 0.22 mg and 0.20 mg (2×) and 0.25 mg and 0.23 mg and 0.21 mg | Drug Amount ([3]; T = 15 days at 2-8 C, 2 hours release time point, Average of 6): 0.33 mg | Drug Amount ([3]; T = 15 days at 2-8 C, 2 hours release time point, individual sample): 0.33 mg (3×) and 0.35 mg and 0.32 mg (2×) | Drug Amount ([3]; T = 15 days at 2-8 C, 3 hours release time point, Average of 6): 0.29 mg | Drug Amount ([3]; T = 15 days at 2-8 C, 3 hours release time point, individual sample): 0.29 mg (2×) and 0.31 mg and 0.30 mg and 0.26 mg (2×) | Drug Amount ([3]; T = 15 days at 2-8 C, 5 hours release time point, Average of 6): 0.42 mg | Drug Amount ([3]; T = 15 days at 2-8 C, 5 hours release time point, individual sample): 0.41 mg and 0.48 mg and 0.44 mg and 0.36 mg and 0.42 mg and 0.38 mg | Drug Amount ([3]; T = 15 days at 2-8 C, 12 hours release time point, Average of 6): 0.63 mg | Drug Amount ([3]; T = 15 days at 2-8 C, 12 hours release time point, individual sample): 0.60 mg and 0.83 mg and 0.76 mg and 0.46 mg and 0.64 mg and 0.51 mg | Drug Amount ([3]; T = 15 days at 2-8 C, 22 hours release time point, Average of 6): 0.18 mg | Drug Amount ([3]; T = 15 days at 2-8 C, 22 hours release time point, individual sample): 0.15 mg and 0.28 mg and 0.25 mg and 0.10 mg and 0.17 mg and 0.12 mg | Drug Amount ([3]; Time Zero, 1 hour release time point, Average of 6): 0.21 mg | Drug Amount ([3]; Time Zero, 2 hours release time point, Average of 6): 0.33 mg | Drug Amount ([3]; Time Zero, 3 hours release time point, Average of 6): 0.28 mg | Drug Amount ([3]; Time Zero, 5 hours release time point, Average of 6): 0.41 mg | Drug Amount ([3]; Time Zero, 12 hours release time point, Average of 6): 0.63 mg | Drug Amount ([3]; Time Zero, 22 hours release time point, Average of 6): 0.17 mg | Drug Amount ([3]; Time Zero, sample solution of 1 hour release time point, individual sample): 0.21 mg and 0.2 mg (2×) and 0.19 mg and 0.24 mg and 0.22 mg | Drug Amount ([3]; Time Zero, sample solution of 2 hours release time point, individual sample): 0.33 mg (2×) and 0.34 mg and 0.32 mg (2×) and 0.31 mg | Drug Amount ([3]; Time Zero, sample solution of 3 hours release time point, individual sample): 0.28 mg (3×) and 0.3 mg and 0.26 mg (2×) | Drug Amount ([3]; Time Zero, sample solution of 5 hours release time point, individual sample): 0.41 mg and 0.48 mg and 0.43 mg and 0.36 mg and 0.42 mg and 0.37 mg | Drug Amount ([3]; Time Zero, sample solution of 12 hours release time point, individual sample): 0.59 mg and 0.85 mg and 0.75 mg and 0.45 mg and 0.63 mg and 0.51 mg | Drug Amount ([3]; Time Zero, sample solution of 22 hours release time point, individual sample): 0.15 mg and 0.27 mg and 0.24 mg and 0.09 mg and 0.17 mg and 0.12 mg | volume of solution in which each gram of solute dissolved ([4]; aqueous solution, pH range 4-14): ~10,000 mL | Approximate volume of solvent in mL per gram of solute ([4]; pH 1): From 10 to 30 mL per gram of solute | Descriptive Term (solubility) ([4]; pH 1): Soluble | Approximate volume of solvent in mL per gram of solute ([4]; pH 2): From 100 to 500 mL per gram of solute | Descriptive Term (solubility) ([4]; pH 2): Slightly soluble | Approximate volume of solvent in mL per gram of solute ([4]; pH 3): More than 10,000 mL per gram of solute | Descriptive Term (solubility) ([4]; pH 3): Practically insoluble | Approximate volume of solvent in mL per gram of solute ([4]; pH 4): More than 10,000 mL per gram of solute | Descriptive Term (solubility) ([4]; pH 4): Practically insoluble | Approximate volume of solvent in mL per gram of solute ([4]; pH 7): More than 10,000 mL per gram of solute | Descriptive Term (solubility) ([4]; pH 7): Practically insoluble | Approximate volume of solvent in mL per gram of solute ([4]; pH 14): More than 10,000 mL per gram of solute | Descriptive Term (solubility) ([4]; pH 14): Practically insoluble | solubility in aqueous solution (descriptive) ([4]; pH range 4-14): slightly soluble to very slightly soluble
